Source: US20090170867A1, “TRPV1 ANTAGONISTS INCLUDING SULFONAMIDE SUBSTITUENT AND USES THEREOF” (Shionogi & Co., Ltd., priority 2007, published 2009)

Columns and labels:
human TRPV1 [1] = biological target: T1, human TRPV1 (Homo sapiens, UniProt Q8NER1); assay: pH-based assay, Protocol 2 (TRPV1/CHO cells, Fura-2 AM, FDSS-3000, pH 5.0-5.1); format: cell-based; conditions: H2SO4 agonist, mean ± SEM, number of trials in parentheses, read-out: TRPV1 IC50 Potency, Human pH CHO (hpH-CHO)
T1 construct: using primers designed surrounding the complete hTRPV1 open reading frame; expressed in transfected cells; host or cells: CHO-K1 cells stably transfected with pcDNA3.1(-)-hVR1 plasmid
T1 sequence (Q8NER1 whole entry): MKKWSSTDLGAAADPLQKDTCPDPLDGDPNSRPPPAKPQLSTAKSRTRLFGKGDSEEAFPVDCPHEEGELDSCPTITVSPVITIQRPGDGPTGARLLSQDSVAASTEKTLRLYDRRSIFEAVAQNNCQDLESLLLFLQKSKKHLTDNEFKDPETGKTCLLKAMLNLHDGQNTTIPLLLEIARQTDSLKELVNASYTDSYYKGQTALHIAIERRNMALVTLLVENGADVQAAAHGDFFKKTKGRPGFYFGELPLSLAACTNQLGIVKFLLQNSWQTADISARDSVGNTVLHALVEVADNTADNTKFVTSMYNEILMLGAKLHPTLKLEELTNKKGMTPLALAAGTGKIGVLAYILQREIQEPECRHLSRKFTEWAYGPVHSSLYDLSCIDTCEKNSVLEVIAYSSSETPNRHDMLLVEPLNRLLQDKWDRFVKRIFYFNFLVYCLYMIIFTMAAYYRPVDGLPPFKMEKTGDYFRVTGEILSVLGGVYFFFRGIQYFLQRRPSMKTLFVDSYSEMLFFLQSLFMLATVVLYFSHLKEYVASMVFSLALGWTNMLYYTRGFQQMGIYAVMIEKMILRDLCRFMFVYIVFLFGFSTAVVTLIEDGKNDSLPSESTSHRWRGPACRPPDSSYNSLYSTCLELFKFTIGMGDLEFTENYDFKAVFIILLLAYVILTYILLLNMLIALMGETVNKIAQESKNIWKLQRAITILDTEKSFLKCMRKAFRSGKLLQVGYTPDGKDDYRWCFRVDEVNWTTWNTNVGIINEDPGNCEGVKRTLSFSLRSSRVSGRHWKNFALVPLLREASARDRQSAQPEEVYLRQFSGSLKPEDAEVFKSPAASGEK
From the text: For Protocol 2, a Chinese Hamster Ovary cell line (CHO) that has been engineered to constitutively express human recombinant TRPV1 was used (TRPV1/CHO cells). The TRPV1/CHO cell line was generated as described below.
The resulting PCR products were purified from agarose gels using Gel Band Purification Kit (GE Healthcare Bioscience) and were subcloned into pCR-Blunt vector (Invitrogen). The cloned cDNA was fully sequenced using a fluorescent dye-terminator reagent (BigDye Terminator ver3.1 Cycle Sequencing Kit, Applied Biosystems) and ABI Prism 3100 genetic analyzer (Applied Biosystems). The pCR-Blunt vector containing the hTRPV1 cDNA was subjected to restriction digestion with EcoRI. The restriction fragment was subcloned into expression vector pcDNA3.1 (−) (Invitrogen) and named pcDNA3.1 (−)-hVR1 plasmid. The sequence of the cDNA encoding TRPV1 is available at GenBank accession number AJ277028.
CHO-K1 cells were maintained in growth medium consisting of α-MEM, 10% FBS (Hyclone), and 100 IU/mL of penicillin-100 μg/mL of streptomycin mixed solution (Nacalai Tesque, Japan) at 37° C. in an environment of humidified 95% air and 5% CO2. The cells were transfected with the pcDNA3.1 (−)-hVR1 plasmid using FuGENE6 (Roche) according to the manufacturer's protocol. 24 hr after transfection, neomycin-resistant cells were selected using 1 mg/mL G418 (Nacalai Tesque). After 2 weeks, individual colonies were picked, expanded, and screened for the expression of hTRPV1 in the capsaicin-induced Ca^2+ influx assay (see below) with a FLIPR (Molecular Devices). A clone with the largest Ca^2+ response to capsaicin was selected and re-cloned by the same procedure. The cells expressing hTRPV1 were cultured in the growth medium supplemented with 1 mg/mL G418.
TRPV1/CHO cells were seeded in the 96-well clear-bottom black-wall plate (Nunc) at densities of 1-2×10^4 cells/well and grown in 100 μL of culture medium (alpha-MEM supplemented with 10% FBS, 20 mM HEPES, 1 mg/mL geneticin and 1% antibiotic-antimycotic mixed stock solution) for 1-2 days before the experiment.
Different agonist solutions with sulfuric acid concentrations of from 15 mM to 18 mM (see FIG. 1) were prepared by diluting 1M sulfuric acid with measuring buffer. The different sulfuric acid concentrations in the agonist solutions were selected such that a 1:4 dilution would result in a final sulfuric acid concentration of between 3.0 mM to 3.6 mM, respectively, as indicated in FIG. 1.
The cells were stimulated using 3.0 mM (well number B1-6), 3.1 mM (C1-6), 3.2 mM (D1-6), 3.3 mM (E1-6), 3.4 mM (F1-6), 3.5 mM (G1-6), or 3.6 mM (H1-6) H2SO4 or pH 7.2 measuring buffer without H2SO4 (A1-6) (FIG. 2).
(1) Culture medium was removed using an 8-channel-pipette (Rainin, USA) from the 96-well plate and the wells were refilled with 100 μL of loading buffer (20 mM HEPES, 115 mM NaCl, 5.4 mM KCl, 0.8 mM MgCl2, 1.8 mM CaCl2, 13.8 mM D-glucose, 2.5 mM probenecid, pH 7.4) containing 5 μM Fura-2 AM (Dojin, Japan).
(2) The 96-well plate was incubated at 37° C. for 45 min.
(3) The loading buffer was removed from each well. The cells were subsequently washed twice with 150 μL of measuring buffer (20 mM HEPES, 115 mM NaCl, 5.4 mM KCl, 0.8 mM MgCl2, 5.0 mM CaCl2, 13.8 mM D-glucose, 0.1% BSA, pH 7.4) (no probenecid). The wells were then refilled with 80 μL of measuring buffer.
(4) After an incubation at 4° C. for 15 min, the 96-well plate was transferred to FDSS-3000 (Hamamatsu Photonics, Japan).
(5) The Fura-2 fluorescent intensity was monitored at a wavelength of 340 nm and at 380 nm, respectively, at a rate of 0.5 Hz for a total of 240 seconds.

human TRPV1 [2] = biological target: T1, human TRPV1; assay: Capsaicin-based assay, Protocol 2 (TRPV1/CHO cells, Fluo-4, FLIPR); format: cell-based; conditions: capsaicin 100 nM final, mean ± SEM, number of trials in parentheses, read-out: TRPV1 IC50 Potency, Human Capsaicin CHO (hCAP-CHO)
From the text: The TRPV1/CHO cell line was generated as described below. […] The resulting PCR products were purified from agarose gels using Gel Band Purification Kit (GE Healthcare Bioscience) and were subcloned into pCR-Blunt vector (Invitrogen). The cloned cDNA was fully sequenced using a fluorescent dye-terminator reagent (BigDye Terminator ver3.1 Cycle Sequencing Kit, Applied Biosystems) and ABI Prism 3100 genetic analyzer (Applied Biosystems). The pCR-Blunt vector containing the hTRPV1 cDNA was subjected to restriction digestion with EcoRI. The restriction fragment was subcloned into expression vector pcDNA3.1 (-) (Invitrogen) and named pcDNA3.1 (-)-hVR1 plasmid. The sequence of the cDNA encoding TRPV1 is available at GenBank accession number AJ277028. […] The cells were transfected with the pcDNA3.1 (-)-hVR1 plasmid using FuGENE6 (Roche) according to the manufacturer's protocol. 24 hr after transfection, neomycin-resistant cells were selected using 1 mg/mL G418 (Nacalai Tesque). […] The cells expressing hTRPV1 were cultured in the growth medium supplemented with 1 mg/mL G418. […] Subsequently, the cells were loaded by incubation in 0.1 mL of wash buffer containing Fluo-4 at 3 μM final concentration. After 1 hour, the cells were washed twice with 0.2 mL wash buffer and resuspended in 0.1 mL wash buffer. The plates were then transferred to a Fluorescence Imaging Plate Reader (Molecular Devices). Fluorescence intensity was monitored for 15 seconds to establish a baseline. […] The final concentration of the compound was adjusted to range from 100 μM to 1.5625 μM. […] Data were collected over the entire time course and analyzed using Excel and the curve-fitting formula GraphPad Prism.

Row | SMILES | IC50 (human TRPV1 [1]) [nM] | IC50 (human TRPV1 [2]) [nM]
1 | O=C(Nc1nc2ccc(F)cc2s1)N1CCC(F)(c2ncc([C@H](O)CO)cc2Cl)CC1 [Compound L1, (S)-4-(3-chloro-5-(1,2-dihydroxyethyl)pyridin-2-yl)-4-fluoro-N-(6-fluorobenzo[d]thiazol-2-yl)piperidine-1-carboxamide] | 27.5 ± 3.4 | 35.3 ± 12
2 | Cc1cc(NC(=O)N2CC=C(c3ncc([C@H](O)CO)cc3F)CC2)ccc1OC(F)(F)F [Compound S3] | 9.2 | 17.7 ± 2
3 | O=C(Nc1ccc(C(F)(F)F)cn1)N1CC=C(c2ncc([C@@H](O)CO)cc2Cl)CC1 [Compound N3, (R)-4-(3-chloro-5-(1,2-dihydroxyethyl)pyridin-2-yl)-N-(5-(trifluoromethyl)pyridin-2-yl)-5,6-dihydropyridine-1(2H)-carboxamide] | 223 ± 14 | 161 ± 41.7
4 | CC(C)Oc1ccc(NC(=O)N2CC=C(c3ncc(CO)cc3Cl)CC2)cc1C(F)(F)F [Compound I2] | 18 ± 1 | 122 ± 7.1
5 | O=C(Nc1ccc(S(=O)(=O)C(F)(F)F)cc1)N1CC=C(c2ncc([C@H](O)CO)cc2Cl)CC1 [Compound Q1] | 8.1 ± 0.7 | 51 ± 16.4
6 | O=C(Nc1ccc(C(F)(F)F)cc1)N1CC=C(c2ncc(C(F)(F)CO)cc2Cl)CC1 [Compound F4, 4-(3-chloro-5-(1,1-difluoro-2-hydroxyethyl)pyridin-2-yl)-N-(4-(trifluoromethyl)phenyl)-5,6-dihydropyridine-1(2H)-carboxamide] | 32.5 ± 2.4 | 86.7 ± 18.9
7 | O=C(Nc1ccc(Br)c(C(F)(F)F)c1)N1CCC(F)(c2ncc([C@H](O)CO)cc2Cl)CC1 [Compound B5] | 15 ± 3 | 106 ± 21
8 | CCCOc1cc(NC(=O)N2CC=C(c3ncc(CO)cc3Cl)CC2)ccc1C(F)(F)F [Compound O2] | 18.8 ± 4 | 162 ± 29.5
9 | O=C(Nc1ccc(C(F)(F)F)cn1)N1CCC(F)(c2ncc([C@@H](O)CO)cc2Cl)CC1 [Compound D4] | 54.8 | 69.6 ± 6.9
10 | O=C(Nc1ccc(OC(F)(F)F)c(Br)c1)N1CC=C(c2ncc(CO)cc2Cl)CC1 [Compound R2] | 49.6 ± 3.4 | 200 ± 26.8
11 | O=C(Nc1nc2ccc(Cl)cc2s1)N1CC=C(c2ncc([C@H](O)CO)cc2Cl)CC1 [Compound W1] | 9.3 ± 1.9 | 68.9 ± 18.4
12 | CC(O)c1cnc(C2=CCN(C(=O)Nc3ccc(C(F)(F)F)cn3)CC2)c(Cl)c1 (stereo not drawn) [Compound B6] | 362 ± 69.1 | 922 ± 205
13 | O=C(Nc1ccc(C(F)(F)F)c(Cl)c1)N1CC=C(c2ncc(CO)cc2Cl)CC1 [Compound S2] | 31.9 ± 2.5 | 205 ± 35.4
14 | O=C(Nc1ccc(C(F)(F)F)c(Cl)c1)N1CC=C(c2ncc([C@@H](O)CO)cc2Cl)CC1 [Compound M3] | 30 ± 2.1 | 187 ± 43.7
15 | O=C(Nc1ccc(C(F)(F)F)cn1)N1CCC(F)(c2ncc([C@@H](O)CO)cc2F)CC1 [Compound Y5] | 108 ± 7.7 | 196 ± 37.7
16 | CCOc1cc(NC(=O)N2CC=C(c3ncc(CO)cc3Cl)CC2)ccc1C(F)(F)F [Compound N2] | 27.3 ± 2.6 | 161 ± 16.6
17 | O=C(Nc1ccc(C(F)(F)F)c(Cl)c1)N1CC=C(c2ncc(CO)cc2Cl)CC1 [Compound L2] | 57.4 ± 9.1 | 153 ± 24.4

Row | SMILES | IC50 (human TRPV1 [1]) [nM] | IC50 (human TRPV1 [2]) [nM]
18 | O=C(Nc1ccc(C(F)(F)F)c(F)c1)N1CC=C(c2ncc([C@H](O)CO)cc2F)CC1 [Compound J1] | 18 | 34.5 ± 17.5
19 | Cc1cc(NC(=O)N2CCC(F)(c3ncc([C@@H](O)CO)cc3Cl)CC2)ccc1OC(F)(F)F [Compound V5] | 10.1 ± 1.4 | 45.5 ± 2.1
20 | O=C(Nc1ccc(Cl)c(C(F)(F)F)c1)N1CC=C(c2ncc([C@H](O)CO)cc2F)CC1 [Compound K2] | 47.2 ± 6.7 | 141 ± 41.9
21 | O=C(Nc1ccc(C(F)(F)F)cc1)N1CCC(F)(c2ncc([C@@H](O)CO)cc2Cl)CC1 [Compound B1] | 7.4 ± 0.3 | 7.81 ± 1.2
22 | O=C(Nc1ccc(C(F)(F)F)cn1)N1CC=C(c2ncc(CO)cc2Cl)CC1 [Compound Z2] | 248 ± 45.3 | 401 ± 122
23 | O=C(Nc1ccc(Br)c(C(F)(F)F)c1)N1CC=C(c2ncc([C@H](O)CO)cc2Cl)CC1 [Compound P2] | 44.4 | 173 ± 40.3
24 | O=C(Nc1nc2ccc(F)cc2s1)N1CCC(F)(c2ncc([C@@H](O)CO)cc2Cl)CC1 [Compound H4] | 97 ± 9.9 | 176 ± 28.4
25 | CC(C)(C)c1ccc(NC(=O)N2CCN(c3ncc([C@H](O)CO)cc3Cl)CC2)cc1 [Compound K6, (S)—N-(4-tert-butylphenyl)-4-(3-chloro-5-(1,2-dihydroxyethyl)pyridin-2-yl)piperazine-1-carboxamide] | 0.8 ± 0.1 | 9.8 ± 2.3
26 | O=C(Nc1nc2ccc(Cl)cc2s1)N1CCC(F)(c2ncc([C@@H](O)CO)cc2F)CC1 [Compound Z5] | 16.4 ± 1.9 | 35.5 ± 3.9
27 | O=C(Nc1nc2ccc(F)cc2s1)N1CCC(F)(c2ncccc2Cl)CC1 [Compound 206] | 1460 | 508
28 | O=C(Nc1ccc(C(F)(F)F)c(F)c1)N1CC=C(c2ncccc2F)CC1 [Compound 202] | 590 | 182
29 | O=C(Nc1ccc(C(F)(F)F)c(F)c1)N1CCC(F)(c2ncc([C@@H](O)CO)cc2F)CC1 [Compound A6] | 9 ± 0.8 | 49.8 ± 12.1
30 | O=C(Nc1ccc(Cl)c(C(F)(F)F)c1)N1CCC(F)(c2ncc([C@@H](O)CO)cc2F)CC1 [Compound G5] | 108 | 400 ± 10.6
31 | O=C(Nc1nc2ccc(Cl)cc2s1)N1CC=C(c2ncc(CO)cc2Cl)CC1 [Compound V2] | 83.2 ± 7.6 | 234 ± 44.6
32 | O=C(Nc1ccc(OC(F)(F)F)c(Cl)c1)N1CCC(F)(c2ncc([C@H](O)CO)cc2Cl)CC1 [Compound M1] | 5.7 ± 0.3 | 37.5 ± 9
33 | O=C(Nc1nc2ccc(Cl)cc2s1)N1CCC(F)(c2ncc([C@H](O)CO)cc2Cl)CC1 [Compound Z4] | 16.5 ± 3.3 | 62.8 ± 11.4
